Experimental data taken from patent publication US4851518A, “Di and tri-O-acetyl-"O-iso-valeryl-23-O-demycinosyl tylosins, hydrazone derivatives thereof and processes for their preparation” (priority 1985, dated 1989).

How the values were obtained:
[1] = Serum levels PO in squirrel monkeys (AUCs, 0-6h.), cylinder cup method; assay type: in vivo; details: for AUC at 6 h: monkey, po
Experimental: The serum levels of the compounds of this invention were determined in male mice (Carworth CF-1) weighing 18-20 g. each, and squirrel monkeys weighing ca. 1 kg. each. Groups of six mice were given aqueous solutions of the drugs intravenously as single bolus doses of 100 mg./kg., and groups of six monkeys were given the drugs orally as a single dose of 20, or 50 mg./kg. After 1, 3, 5, 10, 20, 30, 45, 60, 90, 120 and 180 min., mice were killed by cutting the jugular vein and the blood allowed to drain into 8 mm. (diameter) tubes which had been standing in a ice water bath. At each time point, blood from the group of mice was pooled. For monkeys, blood samples were taken after 15, 30, 45, 60, 90, 120, 180, 240 and 360 minutes and were not pooled. The samples were left to clot at room temperature for 15 min. After clotting, the samples were centrifuged for 10 min. […] Stock solutions of each antibacterial were prepared daily in the appropriate vehicle and diluted in homologous serum to prepare a standard curve. Serum samples, diluted where necessary in the appropriate serum, were compared to a standard curve of known potency by standard assay procedures. All assays were done at least twice.
(§1) AUCs (areas under the curves) were obtained from serum level vs. time data by the trapezoidal rule.

[2] = Serum levels IV in mice (AUCs, 0-3h.), cylinder cup method; assay type: in vivo, male mice (Carworth CF-1); details: for AUC at 3 h: mouse, in vivo, intravenous single bolus 100 mg./kg.; for AUC at 3 h / serum levels compared with erythromycin, rosaramicin, tylosin, 3-O-acetyl-4"-O-iso-valeryltylosin, 3-O-acetyl-23-O-demycinosyl-4"-O-iso-valeryltylosin, intravenously to mice: 10 mg./ml. in vehicle; for serum levels compared with erythromycin, rosaramicin, tylosin, 3-O-acetyl-4"-O-iso-valeryltylosin, 3-O-acetyl-23-O-demycinosyl-4"-O-iso-valeryltylosin, intravenously to mice: 100 mg./kg.
Experimental: The serum levels of the compounds of this invention were determined in male mice (Carworth CF-1) weighing 18-20 g. each, and squirrel monkeys weighing ca. 1 kg. each. Groups of six mice were given aqueous solutions of the drugs intravenously as single bolus doses of 100 mg./kg., and groups of six monkeys were given the drugs orally as a single dose of 20, or 50 mg./kg. After 1, 3, 5, 10, 20, 30, 45, 60, 90, 120 and 180 min., mice were killed by cutting the jugular vein and the blood allowed to drain into 8 mm. (diameter) tubes which had been standing in a ice water bath. At each time point, blood from the group of mice was pooled. For monkeys, blood samples were taken after 15, 30, 45, 60, 90, 120, 180, 240 and 360 minutes and were not pooled. The samples were left to clot at room temperature for 15 min. After clotting, the samples were centrifuged for 10 min. Serum was removed and put into another test tube in an ice water bath, until antibiotic levels were determined by a cylinder cup method, with either Bacillus subtilis ATCC 6633, or Micrococcus luteus ATCC 9431 as the test organisms. Stock solutions of each antibacterial were prepared daily in the appropriate vehicle and diluted in homologous serum to prepare a standard curve. Serum samples, diluted where necessary in the appropriate serum, were compared to a standard curve of known potency by standard assay procedures. All assays were done at least twice.
as §1

[3] = cited from earlier work
[4] = in vivo, 20 mg/kg, oral single dose 20 mg./kg., 20 mg./ml. in PEG 40 castor oil/lactic acid vehicle
[5] = serum, 20 mg/kg, oral single dose 20 mg./kg., 20 mg./ml. in PEG 40 castor oil/lactic acid vehicle
[6] = serum, 20 mg/kg, oral single dose 20 mg./kg., 3.5 mg./ml. in vehicle, crossover experiment

Question: Which AUC at 6 h ([1]; in vivo, 20 mg/kg, oral single dose 20 mg./kg., 3.5 mg./ml. in vehicle) does the source give for CC[C@H]1OC(=O)[C@H](C)[C@@H](O[C@H]2C[C@@](C)(OC)[C@@H](O)[C@H](C)O2)[C@H](C)[C@@H](O[C@@H]2O[C@H](C)C[C@H](N(C)C)[C@H]2O)[C@](C)(O)C[C@@H](C)C(=O)[C@H](C)[C@@H](O)[C@]1(C)O [I, Erythromycin, reference compound] here?
Answer: 1500 ng·h/mL

Question: What about the AUC at 6 h ([1]; in vivo, 20 mg/kg, oral single dose 20 mg./kg., 10 mg./ml. in vehicle) of the same compound?
Answer: 4800 ng·h/mL

Question: And the AUC at 6 h [1, 4]?
Answer: 4900 ng·h/mL

Question: What about the AUC at 3 h [2] of the same compound?
Answer: 36100 ng·h/mL

Question: With CC[C@H]1OC(=O)C[C@@H](O)[C@H](C)[C@@H](O[C@@H]2O[C@H](C)C[C@H](N(C)C)[C@H]2O)[C@@H](CC=O)C[C@@H](C)C(=O)/C=C/[C@]2(C)O[C@H]2[C@@H]1C [II, Rosaramicin, reference compound] as the compound, how does the AUC at 6 h [1, 5] read?
Answer: 2200 ng·h/mL

Question: And the AUC at 6 h ([1]; serum, 50 mg/kg, oral single dose 50 mg./kg., 50 mg./ml. in vehicle)?
Answer: 6600 ng·h/mL

Question: Which AUC at 6 h [1, 4] does the source give for CC[C@H]1OC(=O)C[C@@H](O)[C@H](C)[C@@H](O[C@@H]2O[C@H](C)[C@@H](O[C@H]3C[C@@](C)(O)[C@@H](O)[C@H](C)O3)[C@H](N(C)C)[C@H]2O)[C@@H](CC=O)C[C@@H](C)C(=O)/C=C/C(C)=C/[C@@H]1CO[C@@H]1O[C@H](C)[C@@H](O)[C@@H](OC)[C@H]1OC [III, Tylosin] here?
Answer: 2600 ng·h/mL

Question: What about the AUC at 6 h ([1]; in vivo, 50 mg/kg, oral single dose 50 mg./kg., 50 mg./ml. in vehicle) of the same compound?
Answer: 15600 ng·h/mL

Question: And the AUC at 3 h [2]?
Answer: 24200 ng·h/mL

Question: What about the “stability in acidic and basic solution” value [3] of the same compound?
Answer: readily transformed in acidic and basic solution into aldol condensation and Michael addition products

Question: For CC[C@H]1OC(=O)C[C@@H](OC(C)=O)[C@H](C)[C@@H](O[C@@H]2O[C@H](C)[C@@H](O[C@H]3C[C@@](C)(O)[C@@H](OC(=O)CC(C)C)[C@H](C)O3)[C@H](N(C)C)[C@H]2O)[C@@H](CC=O)C[C@@H](C)C(=O)/C=C/C(C)=C/[C@@H]1CO[C@@H]1O[C@H](C)[C@@H](O)[C@@H](OC)[C@H]1OC [IV, 3-O-Acetyl-4"-O-iso-valeryltylosin, reference compound], which AUC at 6 h [1, 6] is on record?
Answer: 7600 ng·h/mL

Question: And the AUC at 6 h [1, 5]?
Answer: 15800 ng·h/mL

Question: What about the AUC at 3 h [2] of the same compound?
Answer: 52400 ng·h/mL

Question: For CC[C@H]1OC(=O)C[C@@H](OC(C)=O)[C@H](C)[C@@H](O[C@@H]2O[C@H](C)[C@@H](O[C@H]3C[C@@](C)(O)[C@@H](OC(=O)CC(C)C)[C@H](C)O3)[C@H](N(C)C)[C@H]2O)[C@@H](CC=NN2CCS(=O)(=O)CC2)C[C@@H](C)C(=O)/C=C/C(C)=C/[C@@H]1CO [IX, 3-O-Acetyl-23-O-demycinosyl-20-deoxo-20-[(4,4-dioxothiomorpholinyl)imino]-4"-O-iso-valeryltylosin], which AUC at 6 h [1, 5] is on record?
Answer: 2500 ng·h/mL

Question: What about the AUC at 3 h [2] of the same compound?
Answer: 40100 ng·h/mL

Question: For CC[C@H]1OC(=O)C[C@@H](OC(C)=O)[C@H](C)[C@@H](O[C@@H]2O[C@H](C)[C@@H](O[C@H]3C[C@@](C)(O)[C@@H](OC(=O)CC(C)C)[C@H](C)O3)[C@H](N(C)C)[C@H]2O)[C@@H](CC=O)C[C@@H](C)C(=O)/C=C/C(C)=C/[C@@H]1CO [V, 3-O-Acetyl-23-O-demycinosyl-4"-O-isovaleryltylosin, reference compound], which AUC at 6 h [1, 5] is on record?
Answer: 5500 ng·h/mL

Question: What about the AUC at 3 h [2] of the same compound?
Answer: 28300 ng·h/mL

Question: Which results are given for CC[C@H]1OC(=O)C[C@@H](OC(C)=O)[C@H](C)[C@@H](O[C@@H]2O[C@H](C)[C@@H](O[C@H]3C[C@@](C)(O)[C@@H](OC(=O)CC(C)C)[C@H](C)O3)[C@H](N(C)C)[C@H]2OC(C)=O)[C@@H](CC=O)C[C@@H](C)C(=O)/C=C/C(C)=C/[C@@H]1CO [VI, 3,2'-Di-O-acetyl-23-O-demycinosyl-4"-O-iso-valeryltylosin]?
Answer: serum levels compared with 3-O-acetyl-4"-O-iso-valeryltylosin, orally to squirrel monkeys ([1]; 20 mg./kg., 20 mg./ml. in vehicle): slightly lower serum levels; AUC at 6 h [1, 5]: 10400 ng·h/mL; serum levels compared with 3-O-acetyl-4"-O-iso-valeryltylosin, orally to squirrel monkeys ([1]; oral, dose not given): slightly lower serum levels

Question: With CC[C@H]1OC(=O)C[C@@H](OC(C)=O)[C@H](C)[C@@H](O[C@@H]2O[C@H](C)[C@@H](O[C@H]3C[C@@](C)(O)[C@@H](OC(=O)CC(C)C)[C@H](C)O3)[C@H](N(C)C)[C@H]2OC(C)=O)[C@@H](CC=O)C[C@@H](C)C(=O)/C=C/C(C)=C/[C@@H]1COC(C)=O [VII, 3,23,2'-Tri-O-acetyl-23-O-demycinosyl-4"-O-iso-valeryltylosin] as the compound, how does the “serum levels compared with 3-O-acetyl-4"-O-iso-valeryltylosin, orally to squirrel monkeys” value ([1]; 20 mg./kg., 3.5 mg./ml. in vehicle) read?
Answer: superior serum levels

Question: And the AUC at 6 h [1, 6]?
Answer: 13500 ng·h/mL

Question: And the “serum levels compared with 3-O-acetyl-4"-O-iso-valeryltylosin, orally to squirrel monkeys” value ([1]; oral, dose not given)?
Answer: superior serum levels

Question: What about the “serum levels compared with erythromycin, rosaramicin, tylosin, 3-O-acetyl-4"-O-iso-valeryltylosin, 3-O-acetyl-23-O-demycinosyl-4"-O-iso-valeryltylosin, intravenously to mice” value [2] of the same compound?
Answer: serum levels that are superior

Question: And the “serum levels compared with erythromycin, rosaramicin, tylosin, 3-O-acetyl-23-O-demycinosyl-4"-O-iso-valeryltylosin, 3-O-acetyl-4"-O-iso-valeryltylosin, intravenously to mice” value ([2]; intravenous, dose not given)?
Answer: higher serum levels

Question: And the AUC at 3 h [2]?
Answer: 69400 ng·h/mL

Question: Which AUC at 6 h [1, 5] does the source give for CC[C@H]1OC(=O)C[C@@H](OC(C)=O)[C@H](C)[C@@H](O[C@@H]2O[C@H](C)[C@@H](O[C@H]3C[C@@](C)(O)[C@@H](OC(=O)CC(C)C)[C@H](C)O3)[C@H](N(C)C)[C@H]2O)[C@@H](CC=NN2CCS(=O)(=O)CC2)C[C@@H](C)C(=O)/C=C/C(C)=C/[C@@H]1CO[C@@H]1O[C@H](C)[C@@H](O)[C@@H](OC)[C@H]1OC [VIII, 3-O-Acetyl-20-deoxo-20-[(4,4-dioxothiomorpholinyl)imino]-4"-O-iso-valeryltylosin] here?
Answer: 7500 ng·h/mL

Question: And the AUC at 3 h [2]?
Answer: 67600 ng·h/mL

Question: Which AUC at 6 h [1, 5] does the source give for CC[C@H]1OC(=O)C[C@@H](OC(C)=O)[C@H](C)[C@@H](O[C@@H]2O[C@H](C)[C@@H](O[C@H]3C[C@@](C)(O)[C@@H](OC(=O)CC(C)C)[C@H](C)O3)[C@H](N(C)C)[C@H]2OC(C)=O)[C@@H](CC=NN2CCS(=O)(=O)CC2)C[C@@H](C)C(=O)/C=C/C(C)=C/[C@@H]1CO [X, 3,2'-Di-O-acetyl-23-O-demycinosyl-20deoxo-20-[(4,4-dioxothiomorpholinyl)imino]-4"-O-iso-valeryltylosin] here?
Answer: 4800 ng·h/mL

Question: What about the AUC at 3 h [2] of the same compound?
Answer: 80500 ng·h/mL

Question: Which results are given for CC[C@H]1OC(=O)C[C@@H](OC(C)=O)[C@H](C)[C@@H](O[C@@H]2O[C@H](C)[C@@H](O[C@H]3C[C@@](C)(O)[C@@H](OC(=O)CC(C)C)[C@H](C)O3)[C@H](N(C)C)[C@H]2O)[C@@H](CC=NN2CCS(=O)(=O)CC2)C[C@@H](C)C(=O)/C=C/C(C)=C/[C@@H]1COC(C)=O [XI, 3,23-Di-O-acetyl-23-O-demycinosyl-20-deoxo-20-[(4,4-dioxothiomorpholinyl)imino]-4"-O-iso-valeryltylosin]?
Answer: AUC at 6 h [1, 5]: 4600 ng·h/mL; AUC at 3 h [2]: 61800 ng·h/mL

Question: With CC[C@H]1OC(=O)C[C@@H](OC(C)=O)[C@H](C)[C@@H](O[C@@H]2O[C@H](C)[C@@H](O[C@H]3C[C@@](C)(O)[C@@H](OC(=O)CC(C)C)[C@H](C)O3)[C@H](N(C)C)[C@H]2OC(C)=O)[C@@H](CC=NN2CCS(=O)(=O)CC2)C[C@@H](C)C(=O)/C=C/C(C)=C/[C@@H]1COC(C)=O [XII, 3,23,2'-Tri-O-acetyl-23-O-demycinosyl-20-deoxo-20-[(4,4-dioxothiomorpholinyl)imino]-4"-O-iso-valeryltylosin] as the compound, how does the AUC at 6 h ([1]; serum, 20 mg/kg, oral single dose 20 mg./kg., 3.5 mg./ml. in vehicle) read?
Answer: 3800 ng·h/mL

Question: And the “serum levels compared with erythromycin, rosaramicin, tylosin, 3-O-acetyl-4"-O-iso-valeryltylosin, 3-O-acetyl-23-O-demycinosyl-4"-O-iso-valeryltylosin, intravenously to mice” value [2]?
Answer: serum levels that are superior

Question: And the AUC at 3 h [2]?
Answer: 154000 ng·h/mL

Question: For CC[C@H]1OC(=O)C[C@@H](OC(C)=O)[C@H](C)[C@@H](O[C@@H]2O[C@H](C)[C@@H](O[C@H]3C[C@@](C)(O)[C@@H](OC(=O)CC(C)C)[C@H](C)O3)[C@H](N(C)C)[C@H]2O)[C@@H](CC=NN2CCS(=O)(=O)CC2)C[C@@H](C)C(=O)/C=C/C(C)=C/[C@@H]1COC(=O)Cc1ccccc1 [XIII, 3-O-Acetyl-23-O-demycinosyl-20-deoxo-20-[(4,4-dioxothiomorpholinyl)imino]-23-O-phenylacetyl-4"-O-iso-valeryltylosin], which AUC at 3 h [2] is on record?
Answer: 43400 ng·h/mL
